Results taken from patent publication US20020037829A1, “Use of DPPIV inhibitors as diuretic and anti-hypertensive agents” (priority 2000, published 2002).

What was measured:
Type in all cases: cell-based, opossum
[1] = test system: DPPIV; assay: Colorimetric DPPIV enzyme assay with glycylproline p-nitroanilide tosylate as substrate in OKP cells; settings: 1 mM Diprotin A
Protocol: (§1) The concentration dependence for Diprotin A inhibition of DPPIV activity was first evaluated. […] Diprotin A inhibited EIPA-sensitive Na/H exchange activity by 36.7±5.3%. To test the specificity of this inhibition, activity of another brush border transport process, Cl^−-formate exchange, measured as Cl^− gradient-stimulated, DIDS-sensitive uptake of 14C-formate was assayed.

[2] = test system: NHE3; assay: 22Na uptake assay of EIPA-sensitive Na/H exchange (NHE3) activity in OKP cells; settings: 1 mM Diprotin A, 20 min pre-incubation in NH3/NH4+ buffer pH 7.4
Excerpt: As an initial approach to examine the physiological role of the association of DPPIV with NHE3, Diprotin A, a specific competitive inhibitor that binds to the active site of DPPIV, affects NHE3 activity in OKP cells was studied. OKP is a line of opossum proximal tubule cells that has transport properties very similar to the native proximal tubule and is therefore commonly used as an in vitro model for the mammalian proximal tubule.
as §1

[3] = test system: Cl-formate exchange; assay: Cl- gradient-stimulated, DIDS-sensitive 14C-formate uptake (Cl-formate exchange) in OKP cells; settings: Diprotin A
Protocol: as §1

Ile-Pro-Ile [Diprotin A]
inhibition of DPPIV activity in OKP cells [1]: completely inhibited | inhibition of EIPA-sensitive Na/H exchange activity [2]: 36.7±5.3% | effect on Cl-formate exchange activity [3]: no significant effect
